Assay results from article PMC1764434 (PLoS Clinical Trials, 2007).
Where “and” joins values, the source holds several entries; their conditions need not be identical. Identical values can stand only once. Entries after “also recorded” stand apart in the source; their conditions may differ. Like-named read-outs stand apart in the source and are kept apart here.

Tests used:
[1] = Blood pharmacokinetics after oral dosing (fluorescence HPLC, noncompartmental WinNonlin model); format: in vivo, human; settings: for detection of di-dealkylated metabolite in the blood: after oral AQ-13 or CQ; for Cmax / Vd/F / MRT / Tmax / half-life / AUC: human
Experimental: Study drugs were administered in the GCRC on an empty stomach between 8 and 9 AM the morning after admission (after fasting for ≥ 10 h).

[2] = Urinary excretion and renal clearance (24-hour urine collections, days 1-3); settings: for second (di-dealkylated) metabolite/parent ratio in urine: AQ-73/AQ-13 and BDCQ/CQ; for detection of di-dealkylated metabolite in urine: urine collections days 1-3 after dosing
[3] = system: healthy volunteers; test: Clinical adverse events (weekly diaries, blinded relatedness assessment), Phase I RCT; format: in vivo, human
Experimental: Adverse events (AEs) were recorded in weekly diaries provided to each volunteer. The relatedness of these AEs to the study drugs was assessed by two physicians (FM, CH) based on temporal association and biological plausibility using five categories: definitely not, unlikely, possibly, probably, and definitely related. The AEs reported in this manuscript include all AEs assessed as possibly, probably, or definitely related.
Quantitative data are presented as the mean ± standard deviation or as median and range, as appropriate. […] Due to a lack of normality, the nonparametric Mann-Whitney U test was used to compare independent samples; the Wilcoxon or Friedman test (whichever was appropriate) was used to compare repeated measures of the QTc interval. All statistical tests were two-sided with an α (significance level) of 0.05. Analyses were performed using the SPSS 11.0 statistical software (SPSS, Chicago, Illinois, United States). All analyses were based on allocation by intent-to-treat.

[4] = system: healthy volunteers; test: Post-dose clinical and laboratory follow-up (hematology, chemistry, organ toxicity); format: in vivo, human
[5] = system: QT interval; test: Effects on the QT interval (ECG and Holter recordings, Bazett correction); settings: for QTc interval, Baseline: before dosing
Experimental: The effects of the study drugs on the QT interval were assessed by comparing QT intervals before dosing with QT intervals 4 h after dosing, and at the 2 wk follow-up. […] QT intervals were measured manually and electronically (Rozinn Electronics, Glendale, New York, United States). […] Correction of the QT interval for heart rate (i.e., QTc) was performed using Bazett's formula [27].

[6] = 1,500 mg CQ (n = 15) / 1,750 mg AQ-13 (n = 14)
[7] = 100, 300 mg doses, n = 16 per drug
[8] = 600/700 mg, AQ-13 n = 25, CQ n = 24
[9] = all doses combined, 63 volunteers per drug
[10] = 1,750 mg AQ-13, 1,500 mg CQ, mean ± SD
[11] = 600/700 mg AQ-13, 600 mg CQ, mean ± SD
[12] = days 1-3, 1,750 mg AQ-13 / 1,500 mg CQ

With `NCCCNc1ccnc2cc(Cl)ccc12` [AQ-73] the “detection of di-dealkylated metabolite in the blood” value [1] was “not detected in the blood”, the “second (di-dealkylated) metabolite/parent ratio in urine” value ([2]; days 1-3) was 5.2% and the “detection of di-dealkylated metabolite in urine” value [2] was “identified in urine collections”.

With `CC(CCCN)Nc1ccnc2cc(Cl)ccc12` (centres unmarked) [BDCQ] the “detection of di-dealkylated metabolite in the blood” value [1] was “not detected in the blood”, the “second (di-dealkylated) metabolite/parent ratio in urine” value ([2]; days 1-3) was 2.6% and the “detection of di-dealkylated metabolite in urine” value [2] was “identified in urine collections”.

In the case of `CCN(CC)CCCC(C)Nc1ccnc2cc(Cl)ccc12` (centres unmarked) [CQ, chloroquine], the “related adverse events: None” value ([3]; 10 mg dose, n = 8 per drug) was 0, the “Abdominal pain, number (%)” value [3, 6] was 0 and the “Blurred vision, number (%)” value [3, 6] was 2 (13%). The “Diarrhea, number (%)” value [3, 6] was 4 (27%), the “Difficulty focusing/visual floating objects, number (%)” value [3, 6] was 3 (20%) and the “Lightheadedness/Dizziness, number (%)” value [3, 6] was 4 (27%). The “Loss of appetite, number (%)” value [3, 6] was 2 (13%), the “Nausea, number (%)” value [3, 6] was 5 (33%) and the “Vomiting, number (%)” value [3, 6] was 2 (13%). For the same compound, the “Weakness/fatigue, number (%)” value [3, 6] was 0, the “Headache, number (%)” value ([3]; 1,500 mg CQ (n = 15) / 1,750 mg AQ-13 (n = 14) over 3 d) was 4 (27%) and the “Headache, volunteers with related AE, number (%)” value [3, 7] was 1 (6%). The “Lightheadedness/Dizziness, number (%)” value [3, 7] was 1 (6%), the “Nausea, number (%)” value [3, 7] was 0 and the “Abdominal pain, number (%)” value [3, 8] was 0. For the same compound, the “Diarrhea, number (%)” value [3, 8] was 2 (8%), the “Ear symptoms, number (%)” value [3, 8] was 2 (8%) and the “Headache, number (%)” value [3, 8] was 5 (21%). For the same compound, the “Lightheadedness/Dizziness, number (%)” value [3, 8] was 3 (13%), the “Loss of appetite, number (%)” value [3, 8] was 3 (13%) and the “Nausea, number (%)” value [3, 8] was 1 (4%). For the same compound, the “Vomiting, number (%)” value [3, 8] was 0, the “drug-related GI symptoms, number of reports” value ([3]; all doses combined) was 20 reports and the “drug-related lightheadedness/dizziness, volunteers/total” value [3, 9] was 8/63. For the same compound, the “volunteers reporting one or more GI symptoms/total” value [3, 9] was 13/63, the “blood level one hour after dosing as % of Cmax” value ([1]; 600 mg oral dose) was 72% and the Cl/F ([1]; 1,500 mg oral over 3 d, median (range)) was 9.5 L/h. The “median oral clearance (range of medians across dose levels)” value ([1]; 600 and 1,500/1,750 mg doses) was 9.5 to 11.3 L/h, the Cmax ([1]; in vivo, 1500 mg, 1,500 mg oral over 3 d (600+600+300 mg), whole blood, median (range), read-out: Cmax) was 3.4 µM and the Vd/F ([1]; in vivo, 1500 mg, 1,500 mg oral over 3 d, median (range)) was 3720 L. For the same compound, the MRT ([1]; in vivo, 1500 mg, 1,500 mg oral over 3 d, median (range), read-out: MRT (converted)) was 16 days, the Tmax ([1]; in vivo, 1500 mg, 1,500 mg oral over 3 d, median (range), read-out: Tmax) was 1.1 days and the half-life ([1]; in vivo, 1500 mg, 1,500 mg oral over 3 d, median (range), read-out: t½ (converted)) was 13.2 days. It also gave an AUC ([1]; in vivo, po, 600 mg, single oral 600 mg dose, whole blood, median (range), read-out: AUCw1 (partial AUC for week 1)) of 90 µM·h, an AUC ([1]; in vivo, po, 600 mg, single oral 600 mg dose, whole blood, median (range), read-out: AUCτ (total area under the curve)) of 241 µM·h and an AUC ([1]; in vivo, po, 1500 mg, 1,500 mg oral over 3 d, median (range), read-out: AUCw1) of 312 µM·h. The AUC ([1]; in vivo, po, 1500 mg, 1,500 mg oral over 3 d, median (range), read-out: AUCτ) was 636 µM·h, the Tmax ([1]; in vivo, 1,750 mg AQ-13 / 1,500 mg CQ, 27–28 h after the first dose, read-out: time of peak blood concentration after the second dose) was 0.125 to 0.167 days and the half-life ([1]; in vivo, 600 and 1,500 mg oral doses, read-out: estimate of the terminal elimination t1/2 (across doses)) was 14 to 24 days. It also gave a Cmax ([1]; in vivo, single oral 600 mg dose (CQ base equivalent), whole blood, median (range), read-out: Cmax) of 1.8 µM, a Vd/F ([1]; in vivo, single oral 600 mg dose, median (range)) of 8670 L and an MRT ([1]; in vivo, single oral 600 mg dose, whole blood, median (range), read-out: MRT (converted)) of 24.7 days. For the same compound, the Tmax ([1]; in vivo, single oral 600 mg dose, whole blood, median (range), read-out: Tmax) was 0.125 days, the half-life ([1]; in vivo, single oral 600 mg dose, whole blood, median (range), read-out: t½ (terminal elimination half-life) (converted)) was 23.3 days and the linearity of pharmacokinetics ([1]; oral doses in healthy volunteers) was “linear pharmacokinetics”. The “Cl/F (apparent oral clearance)” value ([1]; single oral 600 mg dose, median (range)) was 11.3 (5.7–20.3) l/h, the “hematologic or chemical toxicities on repeat laboratory testing” value ([4]; 4 d after drug administration) was “no hematologic or chemical toxicities” and the organ toxicity ([4]; any dose tested, inpatient exams, 2 and 4 wk follow-up) was “No hematologic, hepatic, renal, or other organ toxicity was observed; also recorded: no clinical evidence for end-organ toxicity”. For the same compound, the “QTc interval of individual volunteers who developed QTc greater than 450 ms” value ([5]; 600 mg CQ, two females) was 467 ms and 457 ms, the “mean QTc prolongation after the first dose (day 1)” value ([5]; 1,500 mg CQ (first 600 mg dose) / 1,750 mg AQ-13 (first 700 mg dose)) was 16 ms and the “additional QTc increase after the second dose (day 2)” value ([5]; 1,500 mg CQ / 1,750 mg AQ-13) was 12 ms. For the same compound, the “QTc interval of individual volunteers who developed QTc > 450 ms” value ([5]; 1,500 mg CQ, 4 h after dosing on day 2, two females) was 453 ms, the “QTc interval, Baseline” value ([5]; 1,750 mg AQ-13 (n = 13), 1,500 mg CQ (n = 14), mean ± SD) was 396 ± 21 ms and the “QTc interval, 2 wk follow-up” value [5, 10] was 412 ± 13 ms. For the same compound, the “QTc interval, 4–5 h post-dose (day 1)” value [5, 10] was 412 ± 22 ms, the “QTc interval, 4–5 h post-dose (day 2)” value [5, 10] was 424 ± 19 ms and 424 ± 18 ms and the “QTc interval, 4–5 h post-dose (day 3)” value [5, 10] was 417 ± 21 ms. For the same compound, the “mean QTc prolongation, females” value ([5]; 1,750 mg AQ-13 / 1,500 mg CQ) was 28 ms, the “mean QTc prolongation, males” value ([5]; 1,750 mg AQ-13 / 1,500 mg CQ) was 31 ms and the “mean increase in the QTc interval from baseline” value ([5]; 1,750 mg AQ-13 / 1,500 mg CQ, 4 h after the second dose on day 2) was 28 ms. The “QTc interval, Baseline” value ([5]; 600/700 mg AQ-13 (n = 25), 600 mg CQ (n = 24), mean ± SD) was 406 ± 19 ms, the “QTc interval, 2 wk follow-up” value [5, 11] was 403 ± 15 ms and the “QTc interval, 4–5 h post-dose (day 1)” value [5, 11] was 421 ± 20 ms. The “maximal prolongation of the QTc interval from baseline at the individual level” value ([5]; 600/700 mg dose) was 54 ms, the “maximal prolongation of the QTc interval from baseline at the individual level” value ([5]; 1,500/1,750 mg dose) was 63 ms and the “mean increase in the QTc interval from baseline, females” value ([5]; 4 h after 600 mg CQ or 600/700 mg AQ-13) was 22 ms. For the same compound, the “mean QTc interval change from baseline, males” value ([5]; 4 h after 600 mg CQ or 600/700 mg AQ-13, not significant) was 7 ms, the “mean increase in the QTc interval from baseline” value ([5]; 4 h after 600 mg CQ or 600 or 700 mg AQ-13) was 15 ms and 16 ms and the “arrhythmias or other cardiac AEs” value ([5]; all doses) was “no arrhythmias or other cardiac AEs; also recorded: no cardiac AEs”. The “amount of unchanged drug recovered from 24 hour urine collections” value [2, 12] was 829 µmol, the “unchanged drug recovered from 24 hour urine collections, % of total oral dose” value [2, 12] was 18.0% and the CL renal ([2]; human, in vivo, po, 1500 mg) was 100 mL/min.

With `CCNCCCC(C)Nc1ccnc2cc(Cl)ccc12` (centres unmarked) [MDCQ, mono-desethylchloroquine] the “time after dosing at which metabolite/parent ratio reached 1.0” value ([1]; 600 mg CQ, MDCQ/CQ ratio) was 2–3 wk, the “metabolite/parent ratio in blood at the Cmax of the parent drug” value ([1]; 600 mg dose, AQ-72/AQ-13 (mean) or MDCQ/CQ) was 0.26 and the “time to appearance of metabolite in the blood” value ([1]; after oral 600 or 700 mg AQ-13 or 600 mg CQ) was ≤ 1 h. The AUC ([1]; whole blood, oral, 1500 mg, after 1,500 mg CQ over 3 d, median (range), read-out: AUCτ of metabolite) was 330 µM·h, the MRT ([1]; whole blood, oral, 1500 mg, after 1,500 mg CQ over 3 d, median (range), read-out: MRT of metabolite (converted)) was 29 days and the half-life ([1]; whole blood, oral, 1500 mg, after 1,500 mg CQ over 3 d, median (range), read-out: t1/2 of metabolite (converted)) was 21.8 days. It also gave an AUC ([1]; whole blood, po, 600 mg, after 600 mg oral dose of parent drug (CQ or AQ-13), whole blood, median (range), read-out: AUCτ of metabolite) of 205 µM·h, an MRT ([1]; whole blood, after 600 mg oral dose of parent drug, median (range), read-out: MRT of metabolite (converted)) of 44.8 days and a half-life ([1]; whole blood, after 600 mg oral dose of parent drug, median (range), read-out: t1/2 of metabolite (converted)) of 31.2 days. For the same compound, the Cmax ([1]; whole blood, after 600 mg oral dose of parent drug, median, read-out: Cmax of metabolite) was 0.54 µM and the “mono-dealkylated metabolite/parent ratio in urine” value ([2]; days 1-3, AQ-72/AQ-13 and MDCQ/CQ) was 22.7%.
